Laboratory results as given in patent US7384915B2, “Chimeric insulin-gad proteins for treating patients with type 1 diabetes or at risk of developing type 1 diabetes” (Alexion Pharmaceuticals, Inc., priority 1997, dated 2008).
Like-named read-outs stand apart in the source and are kept apart here.

Assays:
[1] = test system: non-diabetic male NOD recipients
Procedure: CYTOXAN induction experiments: CYTOXAN (Cyclophosphamide) treatment can increase the incidence and accelerate the onset of diabetes in non-diabetic NOD mice. Randomly selected, non-diabetic male NOD mice, which were 100 to 110 days of age, were injected (ip) with cyclophosphamide (250 mg/kg) on day 0.
All the mice were subjected to urine glucose measurement 2-3 times per week for a period of 21 days after cyclophosphamide injection. The onset of diabetes was recorded as the first point at which two consecutive days of positive urine glucose results were obtained. Blood glucose was also measured to confirm the urine glucose results. […] At day 21, these mice were sacrificed and examined histologically.

[2] = test system: NOD/SCID mice injected with diabetogenic spleen cells; experiment: NOD/SCID adoptive transfer model of IDDM; format: in vivo, mouse; details: IV, 300 ugs of antigen twice daily every other day, day 3 to day 9 after spleen cell transfer; FIG. 5
Procedure: Experiments in the NOD/SCID Adoptive Transfer Model: Spleen mononuclear cells were harvested from diabetic NOD mice of recent disease onset (diabetic not more than 3 weeks) and about 35×10^6 of these spleen cells in 0.2 ml of PBS were injected intravenously into 6-8 week old NOD/SCID mice. Onset of diabetes was monitored biweekly by urine glucose testing and confirmed by blood glucose testing on day 28 relative to the time of spleen cell transfer. At day 28, these mice were sacrificed and examined histologically.
Diabetogenic splenic mononuclear cells were harvested from newly diabetic NOD mice (onset less than 3 weeks previous). To initiate the destruction of islet beta cells and the development of diabetes, 8-12 week old NOD/SCID mice were injected intravenously with 35×10^6 diabetogenic spleen cells. The incidence and onset of diabetes were monitored biweekly by urine glucose testing and confirmed by blood glucose testing at the end of the experiment. The average onset time of diabetes after disease induction was approximately 25 days. IV treatment with IG2, IG3, or islet beta cell antigens was initiated on day 3. Animals were treated with 300 ugs of antigen twice daily every other day for a period of six days (from day 3 to day 9, where the time of spleen cell transfer was day 0).

[3] = test system: non-diabetic male NOD mice; experiment: CYTOXAN (cyclophosphamide) induced IDDM model, antigen treatment; format: in vivo, mouse; details: FIG. 3
Text: Experimental Methods Non-obese diabetic (NOD) mice are a strain of mice that are prone to the development of diabetes, and represent an accepted model system for the study of diabetes mellitus. These mice, designated NOD/MrkTacfBR, were purchased from Taconic Farms (Germantown, N.Y.). NOD SCID mice, designated NOD/SCID, are available from the Jackson Laboratories, Bar Harbor, Me. The incidence of diabetes by 200 days of age in these mice is 80% in females and 50% in males. At 110 days of age, fewer than 15% of the male NOD mice became diabetic. […] In contrast, animals treated with either ICB or either of GAD 65 250-273 or 520-555 peptides, experienced reductions to less than 50% incidence of diabetes. The therapeutic effects of treatment with combinations of ICB and the two GAD peptides were then examined (FIG. 3).

With `O=P1(N(CCCl)CCCl)NCCCO1` (centres unmarked) [CYTOXAN, cyclophosphamide] the “# Diabetic/Total” value ([1]; CYTOXAN 200 mg/kg) was 2/7, the “% diabetic” value ([1]; CYTOXAN 200 mg/kg) was 28.6% and the Mean onset time ([1]; CYTOXAN 200 mg/kg) was 12. For the same compound, the “# Diabetic/Total” value ([1]; CYTOXAN 250 mg/kg) was 5/7, the “% diabetic” value ([1]; CYTOXAN 250 mg/kg) was 71.4% and the Mean onset time ([1]; CYTOXAN 250 mg/kg) was 11. For the same compound, the “# Diabetic/Total” value ([1]; CYTOXAN 300 mg/kg) was 5/7, the “% diabetic” value ([1]; CYTOXAN 300 mg/kg) was 71.4% and the Mean onset time ([1]; CYTOXAN 300 mg/kg) was 12.6.

In the case of “ICB: Oxidized bovine insulin Chain B purchased from Sigma (catalog no. I-6383)”, the “onset of disease in NOD/SCID recipients” value [2] is reported as “only a slight delay in disease onset”.

In the case of “GAD 65 520-555: human GAD 65 peptide 520-555, sequence corresponding to amino acid residues 139-173 of SEQ ID NO:2 (EERMSRLSKVAPVIKARMMEYGTTMVSYQPLGDKV; IG2 fusion protein for hGAD65 (human glutamate decarboxylase))”, the “effect of addition to the ICB with GAD 65 250-273 combination on therapeutic efficacy” value [3] is reported as “appeared to inhibit the therapeutic efficacy”.
